The assay has as its system VPAC1R mRNA. In words: Semiquantitative RT-PCR of VPAC1R mRNA in HDMEC. It is filed as cell-based, human. The note with it: 6 h. The protocol:
To verify our immunohistochemical observation on the mRNA level that the PACAP-induced effects in human dermal endothelial cells are mediated via VPAC1R, we performed RT PCR analysis for VPAC1R, VPAC2R and PAC1R in HDMEC (FIG. 11. Semiquantitative RT-PCR and gel electrophoresis of VPAC1R (FIG. 11A), PAC1R (FIG. 11B) and β-actin (FIG. 11C) in HDMEC. M=marker; lane 1: unstimulated HDMEC; lane 2: TNFα stimulated (4 ng/ml) HDMEC; lane 3 (11A): LPS-stimulated (10 ng/ml) HDMEC; lane 3 (11 B and 11C): HNK cells as positive control; lane 4: RT-control (negative control) In non-stimulated HDMEC cells, mRNA message was only found for PACAP and VPAC1R (FIG. 11A), but not PAC1R (FIG. 11B;) and VPAC2R (data not shown). Note that the PAC1R signal is positive in HNK cells that were used as a positive control. To examine whether proinflammatory mediators such as TNFα or LPS are capable of regulating VPAC1R mRNA expression, HDMEC were harvested without or 6 h after stimulation with TNFα (concentration: 4 ng/ml) or LPS (concentration: 10 ng/ml), respectively, and semiquantitative RT PCR was performed (FIG. 11). To consider the relative mRNA amount in the samples amplification of the housekeeping gene β-actin served as an internal control (FIG. 11C), TNFα as well as LPS induced upregulation of VPAC1R mRNA as compared to the unstimulated controls (FIG. 11). […]

Regarding TNFα, the “VPAC1R mRNA compared to unstimulated controls” value (4 ng/ml) was “upregulation”.
Turning to LPS, the “VPAC1R mRNA compared to unstimulated controls” value (10 ng/ml) was “upregulation”.

(Values after patent publication US20110229423A1 (Galderma Research & Development, priority 2008, published 2011).)
